The values below come from patent US5573772A, “Methods for protecting tissues and organs from ischemic damage” (priority 1994, dated 1996).

Data set [1] deals with intact, blood perfused rabbit heart. The data set can be described thus: Infarct size in the intact anesthetized rabbit, 30 min ischemia and reperfusion, Example 2. The note with it: I-APNEA 0.25 mg/kg iv; control 52±4.3%, PC 9±4.1%.
Protocol: In this study, the effect of the adenosine receptor agonist, I-APNEA, on infarct size in the anesthetized rabbit was compared to the protection observed with ischemic preconditioning (PC).
New Zealand White rabbits (1.5-2.5 kg) were anaesthetized with pentobarbital sodium (40 mg/kg) administered via a catheter in a marginal ear vein. The animals were intubated with a pediatric cuffed endotracheal tube and ventilated with room air using a positive pressure respirator (Harvard Apparatus, Natick, Mass.). The heart was exposed in situ via an incision between the left 4th and 5th ribs, and a branch of the left coronary artery was isolated, using a 3-0 silk suture on RB-taper needle, for later ligation to induce 30 minutes of ischemia followed by 180 minutes of reperfusion. A catheter inserted into a femoral vein was used for administration of fluids and drugs. Infarct size was measured using the method described in the section entitled "Measurement of Infarct Size and Risk Area" in Example 1.
All animals received 30 minutes of regional ischemia, induced by tightening the suture placed around the coronary artery. Following the 30 minutes of ischemia, the suture was loosened, and reperfusion was allowed for the ensuing 180 minutes. Control animals received only the 30 minutes of ischemia and 180 minutes of reperfusion (n=9). Ischemic preconditioning (PC) was induced by 5 minutes of occlusion of the coronary artery followed by 10 minutes of reperfusion before the 30 minutes of occlusion (n=7). In a separate group of rabbits, I-APNEA was delivered intravenously as a slow bolus injection (0.25 mg/kg), beginning 15 minutes prior to the 30 minutes occlusion (n=8). In two additional groups of rabbits, the effects of the A1-selective adenosine receptor blocker, DPCPX, were tested against the effects of PC (n=6) and I-APNEA (n=8). […] At the end of 120 minutes of reperfusion, all animals were killed by an overdose of pentobarbital, and risk area and infarct size were measured.
Data set [2] deals with intact rabbit. The data set can be described thus: Bradycardia and mean arterial pressure in the anesthetized rabbit, Example 2. The note with it: I-APNEA 0.25 mg/kg.
Data set [3] has as its system A3 adenosine receptor (R226). The note with it: cited from earlier work.
The subject of data set [4] is heart. The settings on record: intercoronarily infused before an ischemic insult; cited from earlier work.
Data set [5] relates to human A3 adenosine receptor. The experiment in a line: A3 adenosine receptor binding assay, [125I]-ABA displacement on CHO cell membranes, Example 5. The method, then: Chinese hamster ovary (CHO) cells, obtained from ATCC, expressing the cloned human A3 adenosine receptor [for example, 5 L cells or a mutagenized A3 adenosine receptor (e.g., A3K2)] were grown under standard cell culture conditions and harvested by mechanical agitation in cell culture medium. All further procedures were carried out at 4° C. The cells were disrupted using a Polytron and the resulting cell membranes collected by centrifugation at 50,000 g for 20 minutes. The pellet was suspended in 10 mM Tris-HCl buffer, pH 7.4, (10^6 cells/mL) using the Polytron and centrifuged at 50,000 g for 20 minutes. […]
For the binding assay, 50 μg of membrane protein were incubated with 0.4 nM [^125 l]-aminobenzyladenosine (ABA, custom synthesized by DuPont:NEN; specific activity=2200 Ci/mmol) in 50 mM Tris-HCl buffer, pH 7.4, containing 5 mM MgCl2 and 1 unit/mL adenosine deaminase in a total volume of 100 μL for 2 hours at room temperature. Membranes containing bound radioactivity were collected on Whatman GF/B filters using a Brandel Cell Harvester and washed 3 times with ice-cold 50 mM Tris-HCl buffer, pH 7.4. Radioactivity was quantified using a Beckman gamma counter. […] The specific binding was then calculated by subtracting this non-specific binding value from the total binding.

Data set [6] has as its system rabbit heart. The data set can be described thus: Infarct size in isolated rabbit hearts, A3-receptor mediation of preconditioning, Example 3. The note with it: BW A1433 200 nM + PC. The procedure: New Zealand white rabbits of either sex, between 1.4-2.4 kg, were anesthetized with intravenous sodium pentobarbital (30 mg/kg). The neck was opened and a tracheotomy was performed. The rabbits were ventilated with 100% oxygen via a positive pressure respirator (MD industries, Mobile, Ala.). Ventilation rate was 30-35 breaths per minute, and tidal volume was approximately 15 ml. A left thoracotomy was performed in the fourth intercostal space and pericardium was opened to expose the heart. A 2-0 silk suture with an RB taper needle was passed around a branch of the left coronary artery, and the end of the silk were threaded through a small vinyl tube to form a snare. The heads were quickly excised and mounted on a Langendorff apparatus and perfused at constant pressure with Krebs buffer containing (in mM) 118.5 NaCl, 4.7 KCl, 1.2 MgSO4, 1.2 K2 PO4, 24.3 NaHCO3, 2.5 CaCl2 and 10 glucose. […] The temperature of the perfusate was maintained at 37° C. The perfusion pressure was kept at 75 mm Hg. Pacing electrodes were placed on the right atrium and all hearts were paced at 200 beats/minute with pulses of 5 volts and 4 msec duration to keep the heart rate constant. A fluid-filled latex balloon connected to a transducer via PE240 tubing was inserted into the left ventricle. Balloon volume was adjusted to set the left ventricular diastolic pressure at 10 mm Hg at the beginning of the experiment. Total coronary artery flow was measured by timed collection of buffer from the chamber into a graduated cylinder. Regional ischemia was effected by pulling the snare tight and clamping the tube with a hemostat. Global ischemia was performed by clamping the inflow tubing of the Langendorff apparatus. Reperfusion was achieved by releasing the restriction. All hearts were allowed to equilibrate for 20 minutes before the experiments were started. Heart rate (HR), coronary flow (CF) and left ventricular developed pressure (LVDP) were recorded at the point just before and at the end of each treatment with the pacing momentarily turned off. […] The hearts were removed from the Langendorff apparatus, weighed and then frozen. The hearts were cut into 2 mm transverse slices. The slices were thawed and incubated in 1% triphenyl tetrazolium chloride (TTC) in pH 7.4 buffer for 20 minutes at 37° C. TTC reacts with NADH and dehydrogenase enzymes and stains all tissue still having them to a deep red color. […] After staining, the area of infarcted tissue (TTC negative tissue) and the risk zone (area lacking fluorescence under ultraviolet light) in each slice were traced. The area of infarct and risk zone were determined by planimetry of the tracing. The volume of infarcted myocardium and myocardium at risk was then calculated by multiplying the planimetered areas by the slice thickness. The methods utilized in this example are identical to those described in Example 1. All hearts received 30 minutes of regional ischemia as described in Example 1. The control group (n=8) hearts received only 30 minutes of ischemia. Preconditioned (PC) hearts (n=10) received 5 minutes of global ischemia and 10 minutes of reperfusion prior to the regional ischemia. Adenosine (ADO) treated hearts (n=6) received 10 μM adenosine for 5 minutes prior to regional ischemia. APNEA treated hearts (n=6) received 65 μM APNEA for 5 minutes prior to regional ischemia. In groups receiving the nonselective adenosine blocker, 8-SPT, the blocker was included in the perfusate for 15 minutes at 100 μM starting 5 minutes before the exposure of ADO (ADO-SPT group, n=6), or APNEA (APNEA-SPT group, n=6 ) or 5 minutes before and after 5 minutes of preconditioning ischemia (PC-SPT group, n=5). […] For the PC-BW group (n=5), the A3-receptor antagonist, BW A1433, [Linden J, et al., Molecular Pharmacology 44:524-532 (1993)], was administered at a dose of 200 nM in the perfusate for 5 minutes before and 5 minutes after PC ischemia.

Regarding `Nc1ccc(CCNc2ncnc3c2ncn3[C@@H]2O[C@H](CO)[C@@H](O)[C@H]2O)cc1I` [I-APNEA, N^6-2-(4-amino-3-iodophenyl)ethyladenosine], the Infarct size in data set [1] was determined as 17±3.8%. In data set [2], the Mean arterial pressure result is given as “fall in mean arterial pressure”. In data set [3], the “Binding to R226” value is “bind”.
For `OC[C@H]1O[C@@H](n2cnc3c(NC4CCCC4)nc(Cl)nc32)[C@H](O)[C@@H]1O` [CCPA, 2-chloro-N^6-cyclopentyladenosine], the Ischemic preconditioning effects result in data set [4] is listed as “beneficial ischemic preconditioning effects”.
Regarding `C[C@H](Cc1ccccc1)Nc1ncnc2c1ncn2[C@@H]1O[C@H](CO)[C@@H](O)[C@H]1O` [R-PIA, (R)-N-(2-phenyl-1-methylethyl)adenosine], the Ischemic preconditioning effects result in data set [4] is recorded as “beneficial ischemic preconditioning effects”.
Turning to `CCNC(=O)[C@H]1O[C@@H](n2cnc3c(N)ncnc32)[C@H](O)[C@@H]1O` [NECA, 5'-N-ethylcarboxamidoadenosine], the “Binding to R226” value in data set [3] is “bind”.
Usually IC50 stands for the midpoint of a concentration-inhibition curve. For `Nc1ccc(CNc2ncnc3c2ncn3[C@@H]2O[C@H](CO)[C@@H](O)[C@H]2O)cc1I` [I-ABA, N^6-(4-amino-3-iodobenzyl)adenosine], the IC50 in data set [5] (A3K2 line cell membranes, 0.4 nM [125I]-ABA, read-out: IC50, displacement of [125I]ABA specific binding) turned out to be 2 nM.
Turning to `Nc1ccc(CNc2ncnc3c2ncn3[C@@H]2O[C@H](CO)[C@@H](O)[C@H]2O)cc1[125I]` [[^125 l]ABA, [^125 l]-aminobenzyladenosine], the “Binding to human A3 receptors, affinity” value in data set [5] (radiolabel, A3K2 cells) was “high affinity”.
Take `CCCn1c(=O)c2[nH]c(-c3ccc(OCC(=O)NCCN)cc3)nc2n(CCC)c1=O` [XAC]: in data set [3], the “Binding to R226” value is given as “not to bind”.
Take `CCCn1c(=O)c2[nH]c(-c3ccc(/C=C/C(=O)O)cc3)nc2n(CCC)c1=O` [BW A1433]: in data set [6], the “Infarct size (of the risk area)” value stood at 26.2±3.2%.
